{"source": "paper PMC4485237", "about": "“SPECT/CT Imaging of High-Risk Atherosclerotic Plaques using Integrin-Binding RGD Dimer Peptides” (Scientific Reports, 2015)", "target": "T1, integrin αvβ3 (Mus musculus, UniProt O54890+P43406)", "T1 construct": "from tissue; host or cells: aorta (atherosclerotic plaque and normal regions) of living ApoE-/- and wild-type C57BL/6J mice", "T1 sequence (P43406 31-1044)": "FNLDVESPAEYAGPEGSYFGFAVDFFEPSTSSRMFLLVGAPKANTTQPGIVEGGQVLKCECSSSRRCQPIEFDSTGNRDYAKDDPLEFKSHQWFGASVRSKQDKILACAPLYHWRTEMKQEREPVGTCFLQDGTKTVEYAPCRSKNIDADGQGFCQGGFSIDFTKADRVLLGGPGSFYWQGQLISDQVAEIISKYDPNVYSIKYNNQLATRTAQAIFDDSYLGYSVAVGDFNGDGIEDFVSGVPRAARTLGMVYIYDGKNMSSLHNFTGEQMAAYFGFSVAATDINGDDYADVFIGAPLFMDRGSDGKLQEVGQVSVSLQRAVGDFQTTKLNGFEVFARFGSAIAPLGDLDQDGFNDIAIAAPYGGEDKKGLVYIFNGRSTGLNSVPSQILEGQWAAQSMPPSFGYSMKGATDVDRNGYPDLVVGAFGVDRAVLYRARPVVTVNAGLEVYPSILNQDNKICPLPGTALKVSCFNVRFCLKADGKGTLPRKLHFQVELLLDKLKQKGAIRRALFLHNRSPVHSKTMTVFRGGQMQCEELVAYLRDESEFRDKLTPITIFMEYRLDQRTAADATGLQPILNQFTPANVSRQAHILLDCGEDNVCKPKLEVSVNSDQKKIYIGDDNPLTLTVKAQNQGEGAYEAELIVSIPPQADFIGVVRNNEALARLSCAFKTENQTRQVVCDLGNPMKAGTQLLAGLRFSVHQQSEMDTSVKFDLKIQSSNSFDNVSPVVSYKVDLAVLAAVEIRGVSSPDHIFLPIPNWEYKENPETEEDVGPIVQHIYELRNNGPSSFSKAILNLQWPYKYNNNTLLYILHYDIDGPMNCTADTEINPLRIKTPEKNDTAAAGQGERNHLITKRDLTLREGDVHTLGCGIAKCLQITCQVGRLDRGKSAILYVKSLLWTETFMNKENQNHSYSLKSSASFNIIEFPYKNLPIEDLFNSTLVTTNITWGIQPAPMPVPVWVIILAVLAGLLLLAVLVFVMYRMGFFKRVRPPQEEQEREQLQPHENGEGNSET", "T1 sequence (O54890 26-787)": "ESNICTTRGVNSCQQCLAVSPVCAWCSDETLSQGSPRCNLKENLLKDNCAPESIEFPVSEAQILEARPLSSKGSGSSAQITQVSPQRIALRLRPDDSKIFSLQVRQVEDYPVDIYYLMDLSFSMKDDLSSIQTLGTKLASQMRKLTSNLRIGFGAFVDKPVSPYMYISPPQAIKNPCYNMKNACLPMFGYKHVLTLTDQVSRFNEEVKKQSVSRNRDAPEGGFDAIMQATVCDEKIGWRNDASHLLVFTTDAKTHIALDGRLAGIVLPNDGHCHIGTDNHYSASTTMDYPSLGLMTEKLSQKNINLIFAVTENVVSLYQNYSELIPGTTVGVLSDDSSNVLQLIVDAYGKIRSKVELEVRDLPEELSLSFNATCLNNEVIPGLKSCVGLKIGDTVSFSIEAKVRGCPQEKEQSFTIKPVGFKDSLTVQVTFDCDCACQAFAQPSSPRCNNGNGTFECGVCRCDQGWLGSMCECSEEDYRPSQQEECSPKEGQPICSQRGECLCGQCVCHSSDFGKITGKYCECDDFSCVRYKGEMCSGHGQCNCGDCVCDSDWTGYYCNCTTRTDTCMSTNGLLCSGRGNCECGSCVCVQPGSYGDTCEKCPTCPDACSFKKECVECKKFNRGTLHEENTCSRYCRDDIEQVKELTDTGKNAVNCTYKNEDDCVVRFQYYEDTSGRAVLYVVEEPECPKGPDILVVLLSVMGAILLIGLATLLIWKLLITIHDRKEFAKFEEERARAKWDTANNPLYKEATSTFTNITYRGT", "test": "In vivo SPECT/CT imaging and ROI quantification of radiotracer uptake in aorta of atherosclerotic (ApoE-/-, high-cholesterol diet) and wild-type mice", "conditions": "30 min post-injection, RGD and RAD tracers in the same mouse on consecutive days", "method": "All animal experiments were carried out in accordance with the approved guidelines by the Seoul National University Bundang Hospital Animal Care and Use Committee. Apolipoprotein E knock out mice (male, n = 10) and C57BL/6J mice (male, n = 3) were purchased from the Jackson Laboratory (Bar Harbor, Maine, USA) at 8–10 weeks of age. The ApoE-/- mice were maintained on a high-cholesterol diet (0.2% total cholesterol, Harlan Laboratories, Indianapolis, IN, USA) for 40 weeks. At the time of imaging experiment, the mice had substantial atherosclerotic lesion growth resembling vulnerable plaques in humans. Wild-type mice with the C57BL/6J genetic background had been maintained on a regular diet and were used for the disease controls.\nWe anesthetized mice with 2% isoflurane gas anesthesia. […] The analysis software HiSPECT (Version 1.0, Bioscan Inc., Poway, CA, USA) and InVivoScope (Version 1.43, Bioscan Inc., Poway, CA, USA) were used for image reconstruction and quantification, respectively. […] Manually drawn two-dimensional regions of interest (ROIs) or three-dimensional volumes of interest (VOIs) were used to determine the accumulated radioactivity in units of %ID/g (with decay corrected to the time of injection) using 37–55.5 MBq radioactivity of ^99mTc as the reference source."}
{"smiles": "[O]=[99Tc](=[O])(=[O])[O-]", "note": "[^99mTc-pertechnetate]", "values": [{"measurement": "SPECT uptake in aortic arch region containing atherosclerotic plaques (in words)", "result": "no specific accumulation"}]}
